Where “and” joins values, the source holds several entries; their conditions need not be identical. Equal entries are not always repeated. Structures can show the parent of a compound that is named as a salt.
What follows are compounds tested against T1, Full length human TNNI3K (hTNNI3K) (Homo sapiens, UniProt Q59H18) (assay: Fluorescent polarization assay of compound inhibition on hTNNI3K ATP binding (Biological Assay Method I)). Details: displacement of fluorescent ligand from hTNNI3K ATP binding pocket; mean of a minimum of 2 experiments; read-out: pXC50 (the source's name) (converted).
T1 construct: His-MBP-TEV-Full length human TNNI3K (hTNNI3K); His (N); MBP (N); TEV cleavage site (N); made in house; host or cells: baculovirus system (printed 'Baculokinase system')
T1 sequence (Q59H18 1-835): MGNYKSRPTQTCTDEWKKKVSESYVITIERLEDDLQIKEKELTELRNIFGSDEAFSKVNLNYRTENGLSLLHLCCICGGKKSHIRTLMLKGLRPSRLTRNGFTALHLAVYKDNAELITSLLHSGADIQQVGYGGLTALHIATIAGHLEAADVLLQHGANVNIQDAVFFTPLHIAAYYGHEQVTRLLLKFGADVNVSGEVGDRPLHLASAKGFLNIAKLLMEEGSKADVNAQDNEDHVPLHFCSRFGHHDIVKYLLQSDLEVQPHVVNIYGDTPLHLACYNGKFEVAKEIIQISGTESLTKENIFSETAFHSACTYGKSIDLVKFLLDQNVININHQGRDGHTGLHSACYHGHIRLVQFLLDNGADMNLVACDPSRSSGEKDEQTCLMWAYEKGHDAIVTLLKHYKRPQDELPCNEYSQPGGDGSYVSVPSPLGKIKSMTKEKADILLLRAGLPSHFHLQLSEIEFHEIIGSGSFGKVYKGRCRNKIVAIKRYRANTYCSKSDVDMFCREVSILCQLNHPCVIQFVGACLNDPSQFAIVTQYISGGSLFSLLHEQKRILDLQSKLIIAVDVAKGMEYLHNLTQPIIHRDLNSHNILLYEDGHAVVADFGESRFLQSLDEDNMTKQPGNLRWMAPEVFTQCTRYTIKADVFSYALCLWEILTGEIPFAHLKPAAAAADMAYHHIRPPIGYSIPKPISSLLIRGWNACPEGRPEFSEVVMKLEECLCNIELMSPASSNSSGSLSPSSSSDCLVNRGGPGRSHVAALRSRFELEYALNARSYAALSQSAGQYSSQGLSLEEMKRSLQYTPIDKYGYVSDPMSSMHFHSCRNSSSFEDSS

`CNS(=O)(=O)c1ccc(N(C)C)c(Nc2ncnc3ccc(N)cc23)c1` [Example 84, 3-((6-aminoquinazolin-4-yl)amino)-4-(dimethylamino)-N-methylbenzenesulfonamide] and `CNS(=O)(=O)c1ccc(N(C)C)c(Nc2ncnc3cc(OC)c(OC)cc23)c1` [Example 1, 3-{[6,7-bis(methyloxy)-4-quinazolinyl]amino}-4-(dimethylamino)-N-methylbenzenesulfonamide hydrochloride] fall in the same range of IC50: 10 to 100 nM for the first, 10 to 100 nM for the second.

`CNS(=O)(=O)c1ccc(OCC(F)(F)F)c(Nc2ncnc3cc(OCCCCl)ccc23)c1` [Example 45, 3-({7-[(3-chloropropyl)oxy]-4-quinazolinyl}amino)-N-methyl-4-[(2,2,2-trifluoroethyl)oxy] benzenesulfonamide] and `CNS(=O)(=O)c1ccc(OCC(F)(F)F)c(Nc2ncnc3cc(OC)c(OC)cc23)c1` [Example 11, 3-{[6,7-bis(methyloxy)-4-quinazolinyl]amino}-N-methyl-4-[(2,2,2-trifluoroethyl)oxy]benzenesulfonamide hydrochloride] fall in the same range of IC50: 10 to 100 nM for the first, 10 to 100 nM for the second.

Compared with `CNS(=O)(=O)c1ccc(OC(C)C(F)(F)F)c(Nc2ncnc3cc(OC)c(OC)c(OC)c23)c1` (stereo not shown) [Example 62, N-methyl-4-[(2,2,2-trifluoro-1-methylethyl)oxy]-3-{[5,6,7-tris(methyloxy)-4-quinazolinyl]amino}benzene sulfonamide trifluoroacetate], `CNS(=O)(=O)c1ccc(OC(F)(F)F)c(Nc2ncnc3cc(OC)c(OC)c(OC)c23)c1` [Example 55, N-methyl-4-[(trifluoromethyl)oxy]-3-{[5,6,7-tris(methyloxy)-4-quinazolinyl]amino}benzene sulfonamide trifluoroacetate] is higher in IC50: 1 to 10 nM for the first, 10 to 100 nM for the second.

First: CNS(=O)(=O)c1ccc(N(C)C)c(Nc2ncnc3cc(OCCCN4CCOCC4)ccc23)c1 [Example 73, 4-(dimethylamino)-N-methyl-3-[(7-{[3-(4-morpholinyl)propyl]oxy}-4-quinazolinyl)amino]benzenesulfonamide hydrochloride]
Second: CNS(=O)(=O)c1ccc(N2C(C)CCC2C)c(Nc2ncnc3ccc(Cl)cc23)c1 (stereo not shown) [Example 28, 3-[(6-chloro-4-quinazolinyl)amino]-4-(2,5-dimethyl-1-pyrrolidinyl)-N-methylbenzenesulfonamide trifluoroacetate]
The IC50 of the first is lower: 1 to 10 nM for the first, 10 to 100 nM for the second.

With `CNS(=O)(=O)c1ccc(OC)c(Nc2ncnc3cc(OCCOC)c(OCCOC)cc23)c1` [Example 18, 3-[(6,7-bis{[2-(methyloxy)ethyl]oxy}-4-quinazolinyl)amino]-N-methyl-4-(methyloxy) benzenesulfonamide hydrochloride] the IC50 was 10 to 100 nM.

`CNS(=O)(=O)c1ccc(S(C)(=O)=O)c(Nc2ncnc3cc(OC)c(OC)cc23)c1` [Example 68, 3-{[6,7-bis(methyloxy)-4-quinazolinyl]amino}-N-methyl-4-(methylsulfonyl) benzenesulfonamide trifluoroacetate] was tested, and the IC50 was 1 to 10 nM and ~3.98 nM.
